Tested on: P12-Ichikawa
Test: cell viability relative to DMSO control; higher = less cytotoxic
Conditions: 48 h
How it was run: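 Viability was expressed as a per-plate percentage of DMSO wells, with cell-free wells as background. Leukemia cells (NOMO1 or SEM at 500 cells/well, P12-Ichikawa at 1000 cells/well) were adapted for at least four passages in each medium and seeded in 1536-well plates (5 μl). Library compounds in DMSO were pin-dosed over an 11-point threefold series from 47 μM to 0.79 nM, and CellTiter-Glo One luminescence was read after 48 h at 37°C.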

[1] = HPLM + 10% dialyzed FBS, 0.000781 µM
[2] = HPLM + 10% dialyzed FBS, 0.00234 µM
[3] = HPLM + 10% dialyzed FBS, 0.00702 µM
[4] = HPLM + 10% dialyzed FBS, 0.0211 µM
[5] = HPLM + 10% dialyzed FBS, 0.0632 µM
[6] = HPLM + 10% dialyzed FBS, 0.19 µM
[7] = HPLM + 10% dialyzed FBS, 0.569 µM
[8] = HPLM + 10% dialyzed FBS, 1.71 µM
[9] = HPLM + 10% dialyzed FBS, 5.12 µM
[10] = HPLM + 10% dialyzed FBS, 15.4 µM
[11] = HPLM + 10% dialyzed FBS, 46.1 µM
[12] = RPMI 5 mM glucose + 10% FBS, 0.000781 µM
[13] = RPMI 5 mM glucose + 10% FBS, 0.00234 µM
[14] = RPMI 5 mM glucose + 10% FBS, 0.00702 µM
[15] = RPMI 5 mM glucose + 10% FBS, 0.0211 µM
[16] = RPMI 5 mM glucose + 10% FBS, 0.0632 µM
[17] = RPMI 5 mM glucose + 10% FBS, 0.19 µM
[18] = RPMI 5 mM glucose + 10% FBS, 0.569 µM
[19] = RPMI 5 mM glucose + 10% FBS, 1.71 µM
[20] = RPMI 5 mM glucose + 10% FBS, 5.12 µM
[21] = RPMI 5 mM glucose + 10% FBS, 15.4 µM
[22] = RPMI 5 mM glucose + 10% FBS, 46.1 µM
[23] = RPMI 5 mM glucose + 10% dialyzed FBS, 0.000781 µM
[24] = RPMI 5 mM glucose + 10% dialyzed FBS, 0.00234 µM
[25] = RPMI 5 mM glucose + 10% dialyzed FBS, 0.00702 µM
[26] = RPMI 5 mM glucose + 10% dialyzed FBS, 0.0211 µM
[27] = RPMI 5 mM glucose + 10% dialyzed FBS, 0.0632 µM
[28] = RPMI 5 mM glucose + 10% dialyzed FBS, 0.19 µM
[29] = RPMI 5 mM glucose + 10% dialyzed FBS, 0.569 µM
[30] = RPMI 5 mM glucose + 10% dialyzed FBS, 1.71 µM
[31] = RPMI 5 mM glucose + 10% dialyzed FBS, 5.12 µM
[32] = RPMI 5 mM glucose + 10% dialyzed FBS, 15.4 µM
[33] = RPMI 5 mM glucose + 10% dialyzed FBS, 46.1 µM

Compound	cell viability [1]	cell viability [2]	cell viability [3]	cell viability [4]	cell viability [5]	cell viability [6]	cell viability [7]	cell viability [8]	cell viability [9]	cell viability [10]	cell viability [11]	cell viability [12]	cell viability [13]	cell viability [14]	cell viability [15]	cell viability [16]	cell viability [17]	cell viability [18]	cell viability [19]	cell viability [20]	cell viability [21]	cell viability [22]	cell viability [23]	cell viability [24]	cell viability [25]	cell viability [26]	cell viability [27]	cell viability [28]	cell viability [29]	cell viability [30]	cell viability [31]	cell viability [32]	cell viability [33]
O=[N+]([O-])c1cnc(Sc2nnc(O)n2-c2ccc3c(c2)OCCO3)s1	87.4%	86.1%	87.7%	91%	91.8%	93.4%	94.2%	97%	87.8%	45.8%	2.64%	86.5%	84.3%	88%	94.1%	87.6%	92.5%	81.5%	90%	81.6%	3.89%	1.48%	83.6%	78.6%	80.5%	84.1%	87.4%	89.2%	83.6%	79.2%	79.3%	1.24%	0.948%
Cc1[nH]c(/C=C2\C(=O)Nc3ccc([S+](=O)([O-])Cc4c(Cl)cccc4Cl)cc32)c(C)c1C(=O)N1CCC[C@@H]1CN1CCCC1	105%	108%	99.7%	101%	98.8%	111%	108%	97.9%	91.5%	87.4%	78.3%	99.4%	103%	105%	99.7%	94.6%	95.3%	107%	98.4%	81.5%	85.5%	84.4%	98%	95.8%	93.7%	101%	99%	102%	95%	91.6%	69.5%	78.1%	53%
COc1cccc2c1C(=O)c1c(O)c3c(c(O)c1C2=O)C[C@@](O)(C(C)=O)C[C@@H]3O[C@H]1C[C@H](N)[C@H](O)[C@H](C)O1	107%	112%	115%	109%	114%	101%	6.62%	7.98%	8.25%	9.65%	8.17%	94.8%	112%	113%	104%	103%	73.2%	7.42%	7.61%	7.8%	7.04%	9.59%	102%	107%	107%	106%	98%	70.8%	8.12%	7.49%	7.97%	7.6%	8.42%
COC1(C[S+]([O-])c2ccccc2)CCN(CCc2c[nH]c3ccc(F)cc23)CC1 (stereo not drawn)	112%	105%	112%	114%	113%	115%	109%	96.6%	102%	99.6%	93.2%	117%	116%	133%	148%	140%	99.9%	78.9%	78.7%	115%	106%	97.6%	104%	111%	114%	116%	109%	105%	103%	98.4%	105%	99.9%	85.4%
C=CCn1c(=O)c2cnc(Nc3ccc(N4CCN(C)CC4)cc3)nc2n1-c1cccc(C(C)(C)O)n1	120%	116%	121%	125%	110%	111%	99.3%	43.7%	17%	15.9%	17.4%	–	–	–	–	–	–	–	–	–	–	–	–	–	–	–	–	–	–	–	–	–	–
O=c1[nH]cnc2c1ncn2[C@H]1CC[C@@H](CO)O1	95.9%	101%	107%	102%	99.6%	105%	108%	112%	105%	99.6%	74.1%	83.3%	97.3%	94.6%	109%	96.1%	101%	104%	108%	102%	91.7%	65.5%	83.7%	101%	94.3%	90.1%	96.8%	96.5%	96%	104%	97.1%	84%	67.1%
CC(C)c1ccccc1Cc1cc(C(=O)Nc2ccc([S+](=O)([O-])c3ccccc3C(C)(C)C)cc2)c(O)c(O)c1O	112%	112%	111%	113%	111%	110%	106%	102%	101%	97.2%	91.5%	112%	116%	116%	114%	118%	115%	107%	107%	108%	103%	87.7%	111%	112%	117%	108%	107%	114%	108%	107%	97.1%	93.3%	92.9%
CC(C)C[C@H](NC(=O)[C@H](Cc1ccccc1)NC(=O)c1cnccn1)B(O)O	96.4%	92.9%	106%	106%	4.77%	2.92%	2.65%	2.46%	1.35%	0.316%	-0.93%	93.4%	103%	107%	101%	4.71%	2.56%	2.17%	1.91%	1.36%	0.651%	-0.626%	88.6%	105%	99%	102%	4.76%	2.71%	2.62%	1.7%	1.34%	0.782%	-0.254%
CC(=O)[C@H]1CC[C@H]2[C@@H]3CCC4=CC(=O)CC[C@]4(C)[C@H]3CC[C@]12C	106%	114%	120%	112%	118%	115%	125%	118%	109%	94.7%	110%	–	–	–	–	–	–	–	–	–	–	–	98.1%	112%	108%	118%	120%	125%	120%	116%	105%	91.9%	114%
OC(COC1=C2C(=O)\C=C(/OC2=CC=C1)C([O-])=O)COC3=C4C(=O)\C=C(/OC4=CC=C3)C([O-])=O	84.8%	80.9%	87.4%	79.2%	90.7%	77.2%	88.4%	90.1%	92%	86.7%	90.4%	98.9%	94.9%	97%	94.2%	103%	89%	87.3%	89.3%	86.9%	83.2%	89.5%	75.3%	78.4%	84.8%	82.1%	83.1%	76.7%	81.4%	87.8%	73.4%	81.3%	80.3%
C[N+](C)([O-])CCNc1ccc(NCC[N+](C)(C)[O-])c2c1C(=O)c1c(O)ccc(O)c1C2=O	99.5%	98.6%	97.6%	103%	100%	90.1%	83.2%	63.4%	21.8%	28.9%	15.2%	101%	101%	92.3%	102%	82.7%	72.3%	62.9%	42.8%	7.99%	13.9%	7.05%	84.3%	80.9%	95.8%	96%	83.7%	79.3%	76.2%	44.9%	14.8%	23.6%	10.6%
COc1cc(N[S+](=O)([O-])c2ccc(N)cc2)nc(OC)n1	114%	111%	116%	112%	125%	115%	112%	109%	110%	110%	107%	102%	106%	109%	110%	107%	110%	110%	110%	105%	95.8%	103%	112%	108%	114%	106%	117%	113%	117%	117%	104%	103%	101%
O=C1NC(O)CCN1[C@@H]1O[C@H](CO)[C@@H](O)[C@H]1O (stereo partly drawn)	118%	127%	120%	116%	128%	129%	122%	106%	102%	110%	112%	–	–	–	–	–	–	–	–	–	–	–	118%	119%	131%	124%	116%	120%	120%	121%	110%	115%	107%
COc1cc(-c2nn(C3CCC(N4CCN(C(C)=O)CC4)CC3)c3ncnc(N)c23)ccc1NC(=O)c1cc2ccccc2n1C (stereo not drawn)	117%	114%	114%	128%	115%	116%	107%	111%	103%	102%	83.9%	110%	114%	118%	115%	113%	117%	109%	102%	113%	115%	100%	109%	110%	119%	117%	114%	106%	110%	109%	110%	103%	97.7%
CCCCN(CCCC)C(=O)CN1C[C@H](c2ccc3c(c2)OCO3)[C@@H](C(=O)O)[C@@H]1c1ccc(OC)cc1	112%	111%	113%	70.2%	116%	114%	107%	114%	106%	104%	88.4%	107%	122%	115%	61.9%	112%	122%	123%	118%	36.1%	105%	99.9%	–	–	–	–	–	–	–	–	–	–	–
N\C1=N\C2=C(N=C[N]2COC(CO)CO)C(=O)N1	107%	108%	109%	113%	115%	115%	119%	120%	119%	116%	5.18%	104%	102%	112%	119%	121%	110%	124%	124%	117%	107%	3.39%	101%	98.3%	108%	118%	106%	116%	113%	109%	112%	109%	4.18%
